According to PubChem BioAssay (NCI):
“And” between values parts separate entries of the source, which are not always exact repeats. Identical values can stand only once.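 Cells were grown in 96-well plates and exposed to each compound for 48 hours at five concentrations; endpoints were interpolated linearly between bracketing concentrations, or set to the highest concentration if not reached. The concentration for 50% growth inhibition is given as GI50. At the TGI there is no net growth.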

Tests used:
Assay in all cases: NCI-60 cell line screen, 48 h
[1] = test system: OVCAR-8 ovarian
[2] = test system: T-47D breast
[3] = test system: MCF7 breast
[4] = test system: IGROV1 ovarian
[5] = test system: M14 melanoma
[6] = test system: SF-539 CNS
[7] = test system: EKVX NSCLC
[8] = test system: HOP-92 NSCLC
[9] = test system: HCT-116 colon
[10] = test system: RXF 393 renal

| Compound | GI50 [1] [µM] | TGI [1] [µM] | GI50 [2] | TGI [2] [µM] | GI50 [3] | TGI [3] [µM] | GI50 [4] [µM] | TGI [4] [µM] | GI50 [5] | TGI [5] [µM] | GI50 [6] | TGI [6] [µM] | GI50 [7] [µM] | TGI [7] [µM] | GI50 [8] | TGI [8] | GI50 [9] | TGI [9] [µM] | GI50 [10] | TGI [10] [µM] |
| --- | --- | --- | --- | --- | --- | --- | --- | --- | --- | --- | --- | --- | --- | --- | --- | --- | --- | --- | --- | --- |
| COc1cc(/C=C2\C(=O)Nc3cc(C)c(O)cc32)cc(OC)c1OC | 7.33 | > 67.3 | 3.93 µM | 37.9 | 2.44 µM | 26.4 | 5.35 | 21.3 | 4.45 µM | 17.3 | 5.41 µM | 19.6 | 4.08 | 39 | 5.61 µM | > 100 µM | 4.07 µM | 15.8 | 3.46 µM | 13.4 |
| COc1ccc(S(=O)(=O)N2CC(C)(C)CN(S(=O)(=O)c3ccc(OC)cc3)C2C(=O)NO)cc1 | > 20 | > 20 | > 20 µM | > 20 | > 20 µM | > 20 | > 20 | > 20 | > 20 µM | > 20 | > 20 µM | > 20 | 12.3 | > 20 | 8.14 µM | > 20 µM | > 20 µM | > 20 | > 14.2 µM | > 20 |
| CCOc1ccc2nc(SCc3nc4n(n3)S(=O)(=O)c3ccccc3N4C)sc2c1 | 73 | > 100 | 81.6 µM | > 100 | > 100 µM | > 100 | > 100 | > 100 | > 100 µM | > 100 | 53.8 µM | > 100 | > 100 | > 100 | 20.7 µM | 58.5 µM | 55.8 µM | > 100 | 30.1 µM | 97.3 |
| Cc1ccc(-c2csc(/N=C3\C(=O)Nc4ccccc43)n2)cc1 | 2.47 | 6.9 | 1.36 µM | 4.46 | 1.01 µM | 3.11 | 1.53 | 4.55 | 1.32 µM | 2.79 | 1.71 µM | 3.45 | 1.52 | 5.86 | 1.24 µM | 3.29 µM | 1.35 µM | 2.79 | 1.49 µM | 3.16 |
| OCc1ccc(-c2ccc(-c3ccc(CO)o3)[se]2)o1 | 55.8 | > 100 | 15.7 µM | > 100 | 5.53 µM | > 100 | 9.28 | > 100 | 57.8 µM | > 100 | > 100 µM | > 100 | – | – | 48.2 µM | > 100 µM | 69.4 µM | > 100 | > 100 µM | > 100 |
| CCC[CH2][Sn]([CH2]CCC)([CH2]CCC)[O]c1ccc(Cl)cc1Cl | 0.163 | 0.354 | 0.128 µM | 0.307 | 0.125 µM | 0.255 | 0.083 | 0.223 | 0.143 µM | 0.284 | 0.179 µM | 0.372 | 0.0948 | 0.302 | 0.0733 µM | 0.384 µM | 0.0952 µM | 0.231 | 0.142 µM | 0.296 |
| COc1cc(-c2cc3ncccc3c3nc(N)c4cccnc4c23)cc(OC)c1OC | 0.756 | 46 | 0.824 µM | 32 | 0.327 µM | > 100 | 1.56 | > 100 | 0.284 µM | 3.02 | 0.361 µM | 2.6 | 0.763 | 50.4 | 9.17 µM | > 100 µM | – | – | 0.742 µM | 6.48 |
| Cc1cc(S(=O)(=O)Nc2nc3cscc3c(=O)n2Cc2ccccc2)c(S)cc1Cl | 55.7 | > 100 | 4.53 µM | 90.8 | 39.1 µM | > 100 | 64.9 | > 100 | 61.3 µM | > 100 | 32.1 µM | > 100 | 23.8 | > 100 | > 100 µM | > 100 µM | 27.5 µM | > 100 | 36.2 µM | > 100 |
| CN[C@H]1C=C[C@@H]2/C=C(C)/C=C/[C@@H](C)[C@H]([C@H](C)[C@H](O)[C@@H](C)NC(C)=O)OC(=O)/C=C/C=C(C)\C=C\[C@]2(C)C1 | 0.00922 | > 49 | < 0.001 µM and 0.0049 µM | > 49 | < 0.001 µM and 0.0049 µM | > 49 | 0.0049 | > 49 | < 0.001 µM and 0.0049 µM | 7.24 | < 0.001 µM and 0.0049 µM | 12.8 | – | > 49 | < 0.001 µM and 0.0049 µM | 0.0661 µM and 0.0222 µM | < 0.001 µM and 0.0049 µM | 40.4 | < 0.001 µM and 0.00674 µM | 28.7 |
| S=C(Nc1ccc(Br)cc1)Nc1ccc(Br)cc1 | 18.2 | > 100 | 2.99 µM | > 100 | 3.87 µM | > 100 | 7.41 | > 100 | 8.3 µM | > 100 | > 100 µM | > 100 | 3.72 | > 100 | 2.72 µM | 9.13 µM | 4.21 µM | > 100 | > 100 µM | > 100 |
| COc1ccc(C(=O)/C=C/c2ccc(C)cc2)cc1OC | 11.8 | 27.6 | 3.05 µM | 15.8 | 3.09 µM | 15.1 | 12.3 | 58.6 | 13.7 µM | 26.5 | 5.32 µM | 18.2 | 18.4 | 42.9 | 12.6 µM | 27 µM | 4.69 µM | 17.7 | 12.2 µM | 26.4 |
| CCCNNC(=O)/C=C/c1ccc(CNCCc2c(C)[nH]c3ccccc23)cc1 | 0.0149 | 3.92 | 0.00852 µM | 0.0624 | 0.0252 µM | 3.6 | < 0.0339 | 0.216 | 0.023 µM | 1.94 | 0.0435 µM | 3.78 | 0.074 | 3.73 | 0.00693 µM | 0.0744 µM | 0.00887 µM | 0.324 | 0.011 µM | 0.0479 |
